# Data taken from patent US20030104079A1, “Skin tissue regeneration promoters comprising ginsenoside Rb1” (Japan Science and Technology Corporation, Japan, priority 2000, published 2003).
# Key:
# [1] = Observation of administered animals for side effects; format: in vivo, rats; conditions: present experiments, animals carefully observed
# Text: The amount of administration of ginsenoside Rb1, which is used as the preparation(s) for external or topical application to skin or the preparation(s) for external or topical application to mucosa, is far smaller than the amount of intravenous administration.
# Actually, as indicated in PCT/JP00/04102 (Brain cell or nerve cell protecting agents comprising ginseng), as far as directing treatment or therapy of cerebral infarction by continuous intravenous administration in a dose of […] (weighing 300 g), dihydroginsenoside Rb1 is thought to be a quite safe pharmaceutical composition. The amount of administration of ginsenoside Rb1, which is used as the preparation(s) for external or topical application to skin or the preparation(s) for external or topical application to mucosa, is far smaller than the amount of intravenous administration.
# cerebral infarct lesion = conditions: intravenous 6 pg/day-60 pg/day, rats weighing 300 g; PCT/JP00/04102; cited from earlier work
# open wound of rat skin = assay: Open wound healing by external or topical application to skin (propet ointment); format: in vivo, rats; conditions: for action to promote wound healing: sprayed or spread on the local open wound of rats' skin, inventors' experiences
# Text: For that purpose, for example, by using Wistar male rats (body weight about 300 g), the punch biopsies with diameter 6 mm were made in the dorsal region of animals after shaving under inhalation anesthesia to prepare 3 regions of open wound. Among them, 0.1 g of ophthalmic white Vaseline (Propet) containing 0.01% by weight or 0.001% by weight of ginsenoside Rb1 was spread once for every day in two regions, and in the remaining open wound, the equal amount of ophthalmic white Vaseline (propet) was spread. Nine days after preparing open wound, the skin including wound regions was photographed. Further, we have examined the effects of external or topical cutaneous spread of 0.0001% by weight, 0.00001% by weight or 0.000001% by weight of ginsenoside Rb1 by the same procedure. Experimental animals were euthanized by anesthetia immediately before photographing, then wound regions were dissected out after photographing or after dissecting out wound regions, photographing was performed. Thereafter, the wound region tissues were stored in the fixative. FIG. 5 and FIG. 6 are photographs in place of drawings.
# The punch biopsy with diameter 6 mm was performed in the dorsal 6 regions of each animal under inhalation anesthesia to prepare open wound. Thereafter, 0.1 g of propet (ophthalmic white vaseline) containing ginsenoside Rb1 at the concentrations of 0.0001% by weight (10^−4% by weight), 0.00001% by weight (10^−5% by weight), 0.000001% by weight (10^−6% by weight), 0.0000001% by weight (10^−7% by weight) and 0.00000001% by weight (10^−8% by weight), respectively, was applied externally, once a day, for 9 days on each open wound. The equal amount of propet alone was applied externally or topically in the control animals. Then, immediately after euthanasia by anesthetization, the skin containing the open wound was dissected out and photographed. The collected skin tissue was preserved in a fixative. FIG. 12 is a photograph in place of drawing.
# In each case, there are three wounds on the left side and three wounds on the right side, totally 6 marks of open wounds.
# In the experimental cases hereinbefore explained, an area of open wound (flair region) applied externally only with propet is set as a denominator and an area of open wound administered externally with ginsenoside Rb1 at concentrations from 10^−4% by weight to 10^−8% by weight is set as a numerator, and ratio thereof is calculated. In FIG. 13, n=3 and single asterisk (*) indicates significant difference, P<0.05, and two asterisks (**) indicate significant difference, P<0.01. Statistical test was performed according to Scheffe's post hoc test.
# Details of dihydroginsenoside Rb1 is described in the specification of PCT/JP00/04102 (Brain cell or nerve cell protecting agents comprising ginseng). The punch biopsy with diameter 6 mm was performed at 5 places in the dorsal region of rats (n=4) under inhalation anesthesia to prepare open wound. Thereafter, 0.1 g of propet containing dihydroginsenoside Rb1 at concentrations of 0.0001% by weight (10^−4% by weight), 0.00001% by weight (10^−5% by weight), 0.000001% by weight (10^−6% by weight) and 0.0000001% by weight (10^−7% by weight), respectively, was applied topically or externally, once a day, for 9 days onto each open wound. The equal amount of propet alone was applied externally or topically in the control animals. Then, immediately after euthanasia by anesthetization, the skin containing the open wound was dissected out and photographed. The collected skin tissue was preserved in a fixative. FIG. 14 is a photograph in place of drawing. In FIG. 14, four cases are shown, and from the upper column, the first case, the second case, the third case and the fourth case are shown.
# [2] = system: cultured nerve cells (neurons); assay: SNP-induced apoptosis of cultured nerve cells, MAP2 immunoblotting; format: cell-based, rats
# Text: We (Sakanaka and Tanaka) had reported that when cultured nerve cells were exposed for a short time to sodium nitroprusside, apoptosis or apoptosis-like cell death of neurons is induced (Toku, K. et al., J. Neurosci. Res., 53, 415-425, 1998). […] We have examined the neuroprotective action of dihydroginsenoside Rb1 using the same experimental system.
# Nerve cells were isolated from the cerebral cortices of fetal rats at gestation day 17 by using trypsin EDTA and seeded onto 24 well plate coated with poly-L-lysine. After incubating the cells in Dulbecco's modified Eagle's medium (DMEM) containing 10% fetal calf serum for 16 hours, the culture medium was replaced with a serum-free medium for neuronal culture containing insulin, transferrin, etc. and the neurons were cultured for 3 or 4 days. On day 3 or 4 of culture, sodium nitroprusside (SNP) at the concentration of 300 μM was added to the neuronal culture and incubated for 10 minutes. […] In order to quantify the survival rate of nerve cells or neurons, immunostained MAP2 band was analyzed with densitometry. […]
# Nerve cells were isolated from cerebral cortices of fetal rats on gestation day 17 by using trypsin EDTA and seeded onto a 24 well plate(s) coated with poly-L-lysine. […] In order to quantify survival rate of nerve cells, immunostained MAP2 band was analyzed with densitometry.
compound,measurement,setting,value
CC(C)CCC[C@](C)(O[C@@H]1O[C@H](CO[C@@H]2O[C@H](CO)[C@@H](O)[C@H](O)[C@H]2O)[C@@H](O)[C@H](O)[C@H]1O)[C@H]1CC[C@]2(C)[C@@H]1[C@H](O)C[C@@H]1[C@@]3(C)CC[C@H](O[C@@H]4O[C@H](CO)[C@@H](O)[C@H](O)[C@H]4O[C@@H]4O[C@H](CO)[C@@H](O)[C@H](O)[C@H]4O)C(C)(C)[C@@H]3CC[C@]12C [dihydroginsenoside Rb1],side effect in administered animals,[1],no side effect was noted
same,therapeutic effect on brain infarction,cerebral infarct lesion,excellent therapeutic effect on brain infarction
same,ratio of open wound area to propet alone (FIG. 15),"open wound of rat skin; 0.00001% by weight (10^−5% by weight) or less, n=4, Fisher's PLSD P<0.05",facilitated significantly wound healing
same,therapeutic effect on open wound in rats,open wound of rat skin; 0.0001% by weight (10^−4% by weight),trivial
same,area of open wound region relative to control,"open wound of rat skin; dihydroginsenoside Rb1 at 10^−5%, 10^−6% or 10^−7% by weight",½-¼
same,hair growth in wound healing region (FIG. 14),open wound of rat skin; low concentrations of dihydroginsenoside Rb1,obvious hair growth was observed
same,wound healing vs propet alone (FIG. 14),"open wound of rat skin; propet containing 10^−5% to 10^−7% by weight (100 ng/g to 1 ng/g), once a day for 9 days, n=4",wound healing was obviously promoted
same,"apoptosis or apoptosis-like cell death of neurons caused by SNP, MAP2 band (FIG. 16)","[2]; 0.01 fg/ml (lane 3) to 1 ng/ml (lane 7), SNP 300 μM 10 minutes, 16 hours after SNP",obviously inhibited
same,"apoptosis or apoptosis-like cell death of nerve cells, MAP2 densitometry (FIG. 17)","[2]; 0.01 fg/ml to 1 ng/ml, n=5, P<0.001 / P<0.0001",significantly inhibited
bFGF: basic fibroblast growth factor,action to promote wound healing,open wound of rat skin,inferior to the effects of continuous intravenous administration of ginsenoside Rb1
EGF: epidermal growth factor,action to promote wound healing,open wound of rat skin,inferior to the effects of continuous intravenous administration of ginsenoside Rb1
PDGF,action to promote wound healing,open wound of rat skin,inferior to the effects of continuous intravenous administration of ginsenoside Rb1
